Test results taken from US20220340875A1, “METHODS OF CULTURING AND/OR EXPANDING STEM CELLS AND/OR LINEAGE COMMITTED PROGENITOR CELLS USING AMIDO COMPOUNDS” (IDEAYA BIOSCIENCES, INC., priority 2018, published 2022).

Molecular target: T1, hAhR (Homo sapiens, UniProt P35869)
T1 construct: Stably integrated DRE-luciferase cell lines were generated by transducing the both cell lines with Cignal XRE luciferase reporter (Qiagen) lentiviral particles; endogenous in cells
T1 sequence (P35869 11-848): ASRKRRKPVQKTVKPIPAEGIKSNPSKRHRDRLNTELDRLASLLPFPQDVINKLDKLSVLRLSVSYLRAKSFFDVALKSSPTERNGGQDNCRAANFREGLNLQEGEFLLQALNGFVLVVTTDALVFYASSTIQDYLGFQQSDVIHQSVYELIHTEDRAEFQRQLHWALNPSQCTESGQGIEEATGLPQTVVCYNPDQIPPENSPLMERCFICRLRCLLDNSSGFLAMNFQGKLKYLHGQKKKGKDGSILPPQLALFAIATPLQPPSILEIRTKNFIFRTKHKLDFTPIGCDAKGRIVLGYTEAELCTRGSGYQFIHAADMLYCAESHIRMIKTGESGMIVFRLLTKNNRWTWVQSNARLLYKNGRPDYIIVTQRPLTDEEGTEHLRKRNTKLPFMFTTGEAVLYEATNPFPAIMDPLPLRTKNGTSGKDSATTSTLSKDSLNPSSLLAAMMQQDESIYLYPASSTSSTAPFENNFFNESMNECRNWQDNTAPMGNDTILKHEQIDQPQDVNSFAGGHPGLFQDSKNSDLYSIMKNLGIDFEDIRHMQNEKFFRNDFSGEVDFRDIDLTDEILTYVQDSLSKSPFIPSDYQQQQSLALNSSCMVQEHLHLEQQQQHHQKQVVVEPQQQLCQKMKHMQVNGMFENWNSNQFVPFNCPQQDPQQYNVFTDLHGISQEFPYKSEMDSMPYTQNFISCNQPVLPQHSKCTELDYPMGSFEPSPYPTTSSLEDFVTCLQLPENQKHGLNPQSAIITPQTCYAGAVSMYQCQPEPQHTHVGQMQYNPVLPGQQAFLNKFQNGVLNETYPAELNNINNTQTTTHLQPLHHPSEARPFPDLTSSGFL
Experiment: AhR DRE-luciferase reporter transcriptional assay, antagonist mode (TCDD-induced)
Assay type: cell-based
Conditions: HEPG2 DRE-Luc cells, 3 nM TCDD, 24 hour incubation, relative IC50
Procedure: HEPG2 and HEPA1C1C7 cells were maintained in MEM and αMEM without nucleosides supplemented with 10% heat inactivated FBS respectively. Stably integrated DRE-luciferase cell lines were generated by transducing the both cell lines with Cignal XRE luciferase reporter (Qiagen) lentiviral particles according to the manufacturer protocol. For both cell lines stably integrated reporter cell lines were selected for the presence of 2 µg/mL puromycin. Following selection of stably integrated cell line pools, clonal cell lines were isolated by limiting dilution in 96-well plates. Transcriptional assays were performed by seeding 100 μL of cells at a density of 250,000 or 100,000 cells/mL, for HEPG2 and HEPA1C1C7 DRE-Luc cells respectively, into 96-well cell culture plates in OptiMEM supplemented with 0.5% heat inactivated FBS and allowed to attach overnight. For modulator assays, the compounds were added in a semi-log dose response using a D300e Digital Dispenser (Tecan) followed normalization with vehicle (DMSO). Immediately following compound addition 10 μL of 2,3,7,8-Tetrachlorodibenzo-p-dioxin (TCDD) was added to the cells to a final concentration of 3 nM or 0.3 nM for the HEPG2 and HEPA1C1C7 DRE-Luc cells respectively. Following 24 hour incubation the medium was removed and the cells were lysed in 25 μL of Reporter Lysis Buffer (Promega). Firefly luciferase activity was measured immediately following the addition of 50 μL Luciferase Assay Reagent (Promega). The percent maximal activity for each point was determined using the following equasion: (RLUsample-RLUvehicle−TCDD)/(RLUvehicle+TCDD RLUvehicle−TCDD)*100. The relative IC50, defined as the compound concentration required to reduce the TCDD induced response between the top and bottom plateau of each individual dose response curve by half, for each compound was determined using Prism 7 (GraphPad Software).

`Cc1cc(-c2ccc3c(ccn3CC(F)(F)F)n2)ccc1NC(=O)c1ccnn1C` [Example 084, 1-methyl-N-(2-methyl-4-(1-(2,2,2-trifluoroethyl)-1H-pyrrolo[3,2-b]pyridin-5-yl)phenyl)-1H-pyrazole-5-carboxamide] and `Cc1cc(-c2ccc3cnccc3n2)ccc1NC(=O)c1ccnn1C` [Example 013, 1-methyl-N-(2-methyl-4-(1,6-naphthyridin-2-yl)phenyl)-1H-pyrazole-5-carboxamide] fall in the same range of IC50: 1000 to 10000 nM for the first, 1000 to 10000 nM for the second.

`Cc1cc(C(=O)Nc2ccc(-c3ncc4nc(C(F)(F)F)cc(C)c4n3)cc2F)ccn1` [Example 164, N-(2-fluoro-4-(8-methyl-6-(trifluoromethyl)pyrido[3,2-d]pyrimidin-2-yl)phenyl)-2-methylisonicotinamide] and `Cc1cc(C(=O)Nc2ccc(-c3ncc4nc(OC(F)(F)F)cc(C)c4n3)cc2C)ccn1` [Example 160, 2-methyl-N-(2-methyl-4-(8-methyl-6-(trifluoromethoxy)pyrido[3,2-d]-pyrimidin-2-yl)phenyl)isonicotinamide] cannot be ordered by IC50: < 200 nM for the first, < 200 nM for the second.

Compared with `Cc1cc(-c2ccc3cc(F)cc(C4CC4)c3n2)ccc1NC(=O)c1ccnn1C` [Example 053, N-(4-(8-cyclopropyl-6-fluoroquinolin-2-yl)-2-methylphenyl)-1-methyl-1H-pyrazole-5-carboxamide], `Cc1cc(-c2ccc3cc(C(F)(F)F)cc(C)c3n2)ccc1NC(=O)c1ccnn1C` [Example 203, 1-methyl-N-(2-methyl-4-(8-methyl-6-(trifluoromethyl)quinolin-2-yl)phenyl)-1H-pyrazole-5-carboxamide] is lower in IC50: 500 to 1000 nM for the first, < 200 nM for the second. The second is the more potent here.

Compared with `Cc1c(-c2ncc3cc(C(F)(F)F)ccc3n2)ccc(NC(=O)c2ccnn2C)c1F` [Example 113, N-(2-fluoro-3-methyl-4-(6-(trifluoromethyl)quinazolin-2-yl)phenyl)-1-methyl-1H-pyrazole-5-carboxamide], `Cc1c(NC(=O)c2ccnn2C)ccc(-c2ncc3nc(C(F)(F)F)cc(C)c3n2)c1F` [Example 174, N-(3-fluoro-2-methyl-4-(8-methyl-6-(trifluoromethyl)pyrido[3,2-d]pyrimidin-2-yl)phenyl)-1-methyl-1H-pyrazole-5-carboxamide] is lower in IC50: 200 to 500 nM for the first, < 200 nM for the second.

Compared with `Cc1cc(-c2ncc3cc(C(F)(F)F)ccc3n2)ccc1N(C)C(=O)c1ccnn1Cc1nnn[nH]1` [Example 158, 1-((1H-tetrazol-5-yl)methyl)-N-methyl-N-(2-methyl-4-(6-(trifluoromethyl)-quinazolin-2-yl)phenyl)-1H-pyrazole-5-carboxamide], `Cc1cc(-c2ncc3cc(C(F)(F)F)ccc3n2)ccc1N(C)C(=O)c1ccnn1CC(N)=O` [Example 156, 1-(2-amino-2-oxoethyl)-N-methyl-N-(2-methyl-4-(6-(trifluoromethyl)quinazolin-2-yl)phenyl)-1H-pyrazole-5-carboxamide] is lower in IC50: 1000 to 10000 nM for the first, < 200 nM for the second.

First: COc1cnccc1C(=O)N(C)c1ccc(-c2ncc3cc(C(F)(F)F)ccc3n2)cc1C [Example 145, 3-Methoxy-N-methyl-N-(2-methyl-4-(6-(trifluoromethyl)quinazolin-2-yl)phenyl)isonicotinamide]
Second: Cc1cc(-c2ncc3cc(C(F)(F)F)ccc3n2)ccc1N(C)C(=O)c1ncccc1C [Example 118, N,3-dimethyl-N-(2-methyl-4-(6-(trifluoromethyl)quinazolin-2-yl)phenyl)picolinamide]
The IC50 of the first is lower: < 200 nM for the first, 200 to 500 nM for the second.

`COc1cnccc1C(=O)Nc1ccc(-c2ncc3nc(C(F)(F)F)cc(C)c3n2)cc1C` [Example 184, 3-methoxy-N-(2-methyl-4-(8-methyl-6-(trifluoromethyl)pyrido[3,2-d]pyrimidin-2-yl)phenyl)isonicotinamide] and `Cc1cc(-c2ncc3cc(C(F)(F)F)ccc3n2)ccc1NC(=O)c1ccncc1C` [Example 121, 3-methyl-N-(2-methyl-4-(6-(trifluoromethyl)quinazolin-2-yl)phenyl)isonicotinamide] cannot be ordered by IC50: < 200 nM for the first, < 200 nM for the second.

`CN(C(=O)c1ccnn1C)c1ccc(-c2ncc3nc(C(F)(F)F)ccc3n2)cc1F` [Example 138, N-(2-fluoro-4-(6-(trifluoromethyl)pyrido[3,2-d]pyrimidin-2-yl)phenyl)-N,1-dimethyl-1H-pyrazole-5-carboxamide] and `Cc1cc(-c2ccc3cc(C(F)(F)F)ccc3n2)ccc1N(C)C(=O)c1ccnn1C` [Example 002, N,1-Dimethyl-N-(2-methyl-4-(6-(trifluoromethyl)quinolin-2-yl)phenyl)-1H-pyrazole-5-carboxamide] cannot be ordered by IC50: < 200 nM for the first, < 200 nM for the second.

First: CNC(=O)c1cc(C(=O)N(C)c2ccc(-c3ncc4nc(C(F)(F)F)cc(C)c4n3)cc2C)ccn1 [Example 169, N2,N4-dimethyl-N4-(2-methyl-4-(8-methyl-6-(trifluoromethyl)pyrido-[3,2-d]pyrimidin-2-yl)phenyl)pyridine-2,4-dicarboxamide]
Second: Cc1cc(-c2ncc3nc(C(F)(F)F)cc(C)c3n2)ccc1N(C)C(=O)c1ccnn1CC(C)(C)O [Example 224, 1-(2-hydroxy-2-methylpropyl)-N-methyl-N-(2-methyl-4-(8-methyl-6-(trifluoromethyl)pyrido[3,2-d]pyrimidin-2-yl)phenyl)-1H-pyrazole-5-carboxamide]
The IC50 of the first is lower: < 200 nM for the first, 200 to 500 nM for the second.

`Cc1cc(-c2ncc3cc(C(F)(F)F)ccc3n2)ccc1NC(=O)c1ccnc(C(N)=O)c1` [Example 151, N4-(2-methyl-4-(6-(trifluoromethyl)quinazolin-2-yl)phenyl)pyridine-2,4-dicarboxamide] and `Cc1cc(C(=O)Nc2ccc(-c3ncc4cc(C(F)(F)F)ccc4n3)cc2C)ccn1` [Example 119, 2-methyl-N-(2-methyl-4-(6-(trifluoromethyl)quinazolin-2-yl)phenyl)isonicotinamide] cannot be ordered by IC50: < 200 nM for the first, < 200 nM for the second.

`Cc1cc(-c2ccc3nc(C(F)(F)F)cc(C)c3n2)ccc1NC(=O)c1ccnn1C` [Example 105, 1-methyl-N-(2-methyl-4-(8-methyl-6-(trifluoromethyl)-1,5-naphthyridin-2-yl)phenyl)-1H-pyrazole-5-carboxamide] and `Cc1cc(-c2ncc3cc(F)cc(C)c3n2)ccc1NC(=O)c1ccnn1C` [Example 109, N-(4-(6-fluoro-8-methylquinazolin-2-yl)-2-methylphenyl)-1-methyl-1H-pyrazole-5-carboxamide] cannot be ordered by IC50: < 200 nM for the first, < 200 nM for the second.

First: Cc1cc(-c2ccc3cc(F)ccc3n2)ccc1NC(=O)c1cnoc1C [Example 038, N-(4-(6-fluoroquinolin-2-yl)-2-methylphenyl)-5-methylisoxazole-4-carboxamide]
Second: Cc1cc(-c2ccc3cc(F)ccc3n2)ccc1NC(=O)c1cn(C)cn1 [Example 035, N-(4-(6-fluoroquinolin-2-yl)-2-methylphenyl)-1-methyl-1H-imidazole-4-carboxamide]
The IC50 of the first is lower: 500 to 1000 nM for the first, 1000 to 10000 nM for the second.

Compared with `Cc1cc(-c2ccc3cc(F)ccc3n2)ccc1NC(=O)N1CCOCC1` [Example 041, N-(4-(6-fluoroquinolin-2-yl)-2-methylphenyl)morpholine-4-carboxamide], `Cc1cc(-c2ncc3cc(F)ccc3n2)ccc1NC(=O)c1ccnn1C` [Example 107, N-(4-(6-fluoroquinazolin-2-yl)-2-methylphenyl)-1-methyl-1H-pyrazole-5-carboxamide] is lower in IC50: 1000 to 10000 nM for the first, < 200 nM for the second.

`Cc1cc(-c2ccc3cc(-c4nnn[nH]4)ccc3n2)ccc1NC(=O)c1ccnn1C` [Example 063, N-(4-(6-(1H-tetrazol-5-yl)quinolin-2-yl)-2-methylphenyl)-1-methyl-1H-pyrazole-5-carboxamide] and `Cc1cc(-c2ccc3cccc(F)c3n2)ccc1NC(=O)OC(C)(C)C` [Example 022, tert-butyl (4-(8-fluoroquinolin-2-yl)-2-methylphenyl)carbamate] fall in the same range of IC50: 1000 to 10000 nM for the first, 1000 to 10000 nM for the second.
